Data from patent US11833232B2, “Deodorant compositions with natural wax” (The Procter & Gamble Company, priority 2020, dated 2023).
Structures can show the parent of a compound that is named as a salt.

Tests used:
[1] = system: two key underarm bacteria strains; assay: Raw material microbial inhibition, verdict in words over both strains; type: cell-based, Corynebacterium mucofaciens; Staphylococcus epidermidis
Experimental: The Tier 1 Anaerobic MIC Assay test method to generate the data of Table 2 is described below.
(§1) Tier 1 Anaerobic MIC Assay
The data in Table 2 above was generated with the following test method.
3. Microbial Strains • Staphylococcus epidermidis (clinical isolate) • Corynebacterium mucofaciens (clinical isolate)
4. Test Procedure • Inoculum Preparation • Prior to testing streak organisms for isolation on BHI with 1% Tween 80 plates, wrap with parafilm and place in 37° C. incubator. When isolated colonies appear remove one representative colony from each plate and place each in 5 ml of BHI with 1% Tween 80 media. Incubate at 37° C. with shaking overnight. Inoculate 20 ml BHI with 1% Tween 80 (per 96 deep well plate to be tested) with 20 ul of the overnight culture (1-1000 dilution). • Master Plate Preparation • Compounds/formulations to be tested are diluted across a 96 deep well plate as shown below in Table 3 (for a 1% stock solution). […] 800 ul each 1% stock solution+positive control are added to wells C1 through H1. […] 400 ul is then removed from #1 well added to the #2 well and mixed. This is then continued across the plate resulting in a 50% dilution between wells across the plate (this can be easily accomplished with an automatic 8 channel Matrix pipette set to withdraw, dispense and mix).
In row A of a 96 deep well plate pipette 180 ul of sterile BHI with 1% Tween 80 as a negative growth control. All other wells receive 180 ul of inoculum. From the master plate introduce 20 ul to the corresponding row in the test plate using an 8-channel pipette. Loaded plates are placed on a plate shaker in the 37° C. incubator and incubated overnight. The next day read the O.D. 600 on a plate reader. The MIC is the last well from the right that has no bacterial growth.

C. mucofaciens = assay: Tier 1 Anaerobic MIC Assay; type: cell-based, Corynebacterium mucofaciens (clinical isolate); conditions: raw material, 37° C. overnight, O.D. 600
Description: as §1
(§2) The data in Table 2 above was generated with the following test method. The purpose of this assay is to determine if a compound or formulation has an antimicrobial effect in vitro.
(§3) It is understood that when not specifically noted in this procedure: • a) All materials, reagents and equipment required for this procedure are of appropriate design and condition of cleanliness and/or sterility as determined by their intended use. • b) The operator has been trained in aseptic technique and has been qualified to perform the procedure and accurately interpret the results. • c) All media required for this procedure was manufactured by a reputable commercial source egg. Difco, Merck etc. and has been stored and prepared as per manufacturer's instructions. • d) All routine laboratory controls, including but not limited to, media function and growth promotion tests, verification of sterility and use of positive and negative controls are being conducted.
(§4) Procedure: (All procedures performed in anaerobic chamber except where noted)
1. […]
(§5) In row A of a 96 deep well plate pipette 180 ul of sterile BHI with 1% Tween 80 as a negative growth control. […] The next day read the O.D. 600 on a plate reader. […]

S. epidermidis = assay: Tier 1 Anaerobic MIC Assay; type: cell-based, Staphylococcus epidermidis (clinical isolate); conditions: raw material, 37° C. overnight, O.D. 600
Description: as §1, §2, §3, §4
1. […]
as §5

microbial inhibition concentration (MIC) (C. mucofaciens) [ppm]	microbial inhibition concentration (MIC) (S. epidermidis) [ppm]	SMILES	performance against the bacteria as raw materials (in words) [1]
		CCOC(=O)CC(O)(CC(=O)OCC)C(=O)OCC [100% Triethyl citrate, Triethyl citrate]	performing well
		C=CCCCCCCCCC(=O)N[C@@H](Cc1ccccc1)C(=O)O [Sepiwhite 40 mg/ml H2O ins]	performing well
<2	7	N=C(N)c1ccc(OCCCCCCOc2ccc(C(=N)N)cc2)cc1 [Hexamidine 36 mg/ml H2O, Hexamidine]	perform particularly well
		O=C([O-])[O-].[Ca+2] [Ca Carbonate 50 mg/ml H2O ins, calcium carbonate]	performing moderately well
		COC(=O)CCC(=O)OC [Dimethyl Succinate 98% ETOH, Dimethyl Succinate]	performing well
		CC(C)=CCCC(C)=CC=O [Citral 96% ETOH, Citral]	performing well
		C=CCc1ccc(O)c(OC)c1 [Eugenol 99% ETOH, Eugenol]	performing well
< 5	10	Cc1cc(CC(C)CC(C)(C)C)n(O)c(=O)c1.NCCO (stereo not drawn) [100 mg/ml piroctone olamine in H2O, piroctone olamine]	perform particularly well
